Laboratory results: patent US20190263796A1, “LIM KINASE INHIBITORS, PHARMACEUTICAL COMPOSITION AND METHOD OF USE IN LIMK-MEDIATED DISEASES” (CELLIPSE, priority 2016, published 2019)

Legend:
Type in all cases: cell-based
[1] = test system: MV4-11 cells; experiment: Cell proliferation assay (PrestoBlue), MV4-11; conditions: Homo sapiens, 48 h
Protocol: MV4-11 cell line was originally purchased from the American Type Culture Collection (ATCC). MV4-11 cells are cultured in RPMI 1640 10% (v/v) FBS supplemented with 100 U/mL^−1 penicillin, 0.1 mg·mL^−1 streptomycin (PAN Biotech P06-07100) and 2 mM Glutamine (Sigma-Aldrich 59202C). Cells were maintained at 37° C. with 5% CO2.
The assay was performed in 96 wells microplate (Greiner Bioone 655090). MV4-11 cells are seeded at 5,000 cells per well. Compounds (or equivalent amounts of DMSO) are then added and cells are allowed to grow for 48 h. Proliferation is evaluated using PrestoBlue assay according to manufacturer recommendations. Results are expressed as GI50 (Growth Inhibition 50%: concentration at which proliferation is inhibited of 50%) in comparison to DMSO controls.

[2] = test system: P-MEK/Total MEK; experiment: Western blot MEK1 phosphorylation, MOLM-13; conditions: for IC50: Homo sapiens, read-out: IC50 P-MEK/Total MEK
Protocol: (§1) MOLM-13 cell line was originally purchased from the Leibniz-Institut Deutsche Sammlung von Mikroorganismen und Zellkulturen GmbH (DSMZ). MOLM-13 cells are cultured in RPMI 1640 20% (v/v) FBS supplemented with 100 U/mL^−1 penicillin, 0.1 mg·mL^−1 streptomycin (PAN Biotech P06-07100). Cells were maintained at 37° C. with 5% CO2.
(§2) In a 6 wells plate (Falcon 353046), 2·10^6 cells in 1.5 mL medium are treated for 2 h with compounds. Cells are then collected and cell lysis is performed at 4° C. using RIPA buffer supplemented with protease inhibitors cocktail (Sigma-Aldrich P8340) and phosphatase inhibitors cocktail (Sigma-Aldrich P5726). Following centrifugation 30 min 15000 g 4° C., supernatants are mixed with Laemmli buffer and denaturation is performed by heating 5 min 95° C. 10 μL of samples are subjected to electrophoresis on 15% SDS-PAGE. After electro-transfer (Mini Transblot, Bio-Rad), the PVDF membrane (Merck-Millipore Immobilon P IPVH00010) is blocked with Tris Buffered Saline, pH 7.4 (TBS) with 0.1% Tween 20 and 5% BSA for 1 h at room temperature under agitation. The membrane was rinsed 3 times 10 min at room temperature under agitation with TBS, 0.1% Tween-20 (TBST) and then 1 h at room temperature with anti-phospho-Ser218/222-MEK1 (Merck-Millipore 07-461, 1/1000 dilution) antibody or anti-MEK1 (Merck-Millipore 07-641, 1/1000 dilution) diluted in TBS, 0.1% Tween 20 and 1% BSA. The membrane is then rinsed 3 times 10 min RT under agitation in TBST and incubated for 1 h with anti-rabbit secondary antibody, horseradish peroxidase conjugated (Jackson Immunoresearch #711-036-152) under agitation at room temperature. After three washes 10 min at room temperature in TBST, the detection of total or phosphorylated cofilin was performed using chemiluminescence kit ECL™ Plus (GE Healthcare RPN2132). For each concentration of compound, ratio between phosphorylated cofilin and total cofilin is determined. This ratio is then expressed as percentage of control ratio (i.e., ratio from DMSO treated cells). IC50 P-MEK/Total MEK is then determined.
(§3) Selectivity ratios are calculated by dividing the IC50 P-MEK/Total MEK value (μM) by the IC50 Phospho-Ser3-Cofilin/Total Cofilin value (μM).

[3] = test system: P-MEK/Total MEK; experiment: Western blot MEK1 phosphorylation, MOLM-14; conditions: for IC50: 2 h; for Selectivity ratio: IC50 P-MEK/Total MEK divided by IC50 Phospho-Ser3-Cofilin/Total Cofilin
Protocol: MOLM-14 cell line was originally purchased from the American Type Culture Collection (ATCC). MOLM-14 cells are cultured in MEM alpha 10% (v/v) FBS supplemented with 100 U/mL^−1 penicillin, 0.1 mg·mL^−1 streptomycin (PAN Biotech P06-07100). Cells were maintained at 37° C. with 5% CO2.
as §2, §3

[4] = test system: P-MEK/Total MEK; experiment: Western blot MEK1 phosphorylation, THP-1; conditions: for IC50: Homo sapiens, read-out: IC50 P-MEK/Total MEK
Protocol: Cells were maintained at 37° C. with 5% CO2.
as §2, §3

[5] = test system: Phospho-Ser3-Cofilin/Total Cofilin; experiment: Western blot cofilin phosphorylation, HL-60; conditions: HL-60 cells, 2 h
Protocol: as §1, with “HL-60” for “MOLM-13”, “10%” for “20%”
as §2, with “1 h RT under agitation.” for “1 h at room temperature under agitation.”, “temperature with anti-phospho-Ser3-cofilin (Cell Signaling Technology #3313, 1/1000 dilution)” for “temperature with anti-phospho-Ser218/222-MEK1 (Merck-Millipore 07-461, 1/1000 dilution)”, “antibody or anti-cofilin (Cell Signaling Technology #3312, 1/1000 dilution)” for “antibody or anti-MEK1 (Merck-Millipore 07-641, 1/1000 dilution)”, “10 min at room temperature under agitation” for “10 min RT under agitation”, “cells). IC50 Phospho-Ser3-Cofilin/Total Cofilin is then” for “cells). IC50 P-MEK/Total MEK is then”

[6] = test system: P-MEK/Total MEK; experiment: Western blot MEK1 phosphorylation, HL-60; conditions: HL-60 cells; for IC50: 2 h, read-out: IC50 P-MEK/Total MEK; for Selectivity ratio: IC50 P-MEK/Total MEK divided by IC50 Phospho-Ser3-Cofilin/Total Cofilin
Protocol: as §1, with “HL-60” for “MOLM-13”, “10%” for “20%”
as §2, §3

CNC(=O)Cc1nc(-c2cccc(NS(=O)(=O)c3c(F)cccc3F)c2F)c(-c2ccnc(Nc3ccccc3)n2)s1 [Compound 9, 2-(4-(3-(2,6-difluorophenylsulfonamido)-2-fluorophenyl)-5-(2-(phenylamino)pyrimidin-4-yl)thiazol-2-yl)-N-methylacetamide]
GI50 [1]: 1 to 5 µM | IC50 ([2]; MOLM-13, 2 h): > 1 µM | IC50 ([3]; read-out: IC50 P-MEK/Total MEK, MOLM-14 cells): > 1 µM | IC50 ([4]; THP-1, 2 h): 0.2 to 1 µM

CC(C)(C)c1nc(-c2cccc(NS(=O)(=O)c3c(F)cccc3F)c2F)c(-c2ccnc(Nc3ccccc3)n2)s1 [Compound 1, N-(3-(2-(tert-butyl)-5-(2-(phenylamino)pyrimidin-4-yl)thiazol-4-yl)-2-fluorophenyl)-2,6-difluorobenzenesulfonamide]
GI50 [1]: ≤ 1 µM | IC50 ([3]; Homo sapiens, MOLM-14, 2 h, read-out: IC50 P-MEK/Total MEK, MOLM-14 cells): > 1 µM | Selectivity ratio ([3]; MOLM-14 cells): 40

O=S(=O)(Nc1cccc(-c2nc(CCO)sc2-c2ccnc(Nc3ccccc3)n2)c1F)c1c(F)cccc1F [8 (Na)]
IC50 [5]: < 0.2 µM | IC50 [6]: > 1 µM | Selectivity ratio [6]: 42 | IC50 ([2]; MOLM-13 cells, 2 h): > 1 µM | Selectivity ratio ([2]; MOLM-13 cells, IC50 P-MEK/Total MEK divided by IC50 Phospho-Ser3-Cofilin/Total Cofilin): 42 | IC50 ([3]; MOLM-14 cells, read-out: IC50 P-MEK/Total MEK): > 1 µM | Selectivity ratio ([3]; MOLM-14 cells): 30

O=S(=O)(Nc1cccc(-c2nc(CCO)sc2-c2ccnc(Nc3ccccc3)n2)c1F)c1c(F)cccc1F [Compound 8, 2,6-difluoro-N-(2-fluoro-3-(2-(2-hydroxyethyl)-5-(2-(phenylamino)pyrimidin-4-yl)thiazol-4-yl)phenyl)benzenesulfonamide]
IC50 ([5]; Homo sapiens): < 0.2 µM | Selectivity ratio [6]: 31 | IC50 ([6]; Homo sapiens): > 1 µM | GI50 [1]: ≤ 1 µM | IC50 ([3]; Homo sapiens, MOLM-14 cells, read-out: IC50 P-MEK/Total MEK): > 1 µM | Selectivity ratio ([3]; MOLM-14 cells): 100 | IC50 ([4]; THP-1 cells, 2 h): 0.2 to 1 µM | Selectivity ratio ([4]; THP-1 cells, IC50 P-MEK/Total MEK divided by IC50 Phospho-Ser3-Cofilin/Total Cofilin): 80
